According to patent US5959123A, “3,4-Disubstituted azetidin-2-one derivatives useful as cysteine proteinase regulators” (Synphar Laboratories, Inc., priority 1997, dated 1999):

Legend:
cathepsin L = cathepsin L (Rattus norvegicus, UniProt P07154); experiment: In vitro assay for cathepsin L inhibition; format: biochemical; details: r rat cathepsin L; pH 5.0; 10 min incubation at room temperature; substrate N-CBZ-Phe-Arg-AMC (1 mM, 20 μl)
Description: To a 170 μl of enzyme-buffer mixture (enzyme: r rat cathepsin L, diluted to give approximate 15 F units/min, buffer: 58.8 mM sodium citrate, 1.18 mM EDTA, 235 mM sodium chloride, 5 mM DTT, pH 5.0) a 10 μL of inhibitor (dissolved in DMSO) was added. After 10 min of incubation at room temperature, a 20 μl of 1 mM substrate (N-CBZ-Phe-Arg-AMC, dissolved in DMSO) was added to initiate reaction. Reading is followed up for 10 min at the fluoroscan reader (excitation at 380 nm emission at 460 nm).
(§1) A plot of percentage of inhibition vs inhibitor concentration is obtained, and IC50 is determined using a linear regression calculation (concentration of inhibitor which will give 50% inhibition).

cathepsin B = cathepsin B (Rattus norvegicus, UniProt P00787); experiment: In vitro assay for cathepsin B inhibition; format: biochemical; details: r rat cathepsin B; pH 5.1; 10 min incubation at room temperature; substrate N-CBZ-Phe-Arg-AMC (5 mM, 20 μl)
Description: The compounds of formula I were tested for inhibition of cathepsin B using the known method (A. J. Barret et al., Biochem. J. 1982, 201, 189-198). To a 170 μl of enzyme-buffer mixture (enzyme: r rat cathepsin B, diluted to give approximate 10 F units/min, buffer: 56 mM sodium acetate, 1.124 mM EDTA, 10 mM DTT, pH 5.1) a 10 μL of inhibitor (dissolved in DMSO) was added. After 10 min of incubation at room temperature, a 20 μl of 5 mM substrate (N-CBZ-Phe-Arg-AMC, dissolved in DMSO) was added to initiate reaction. Reading is followed up for 10 min at the fluoroscan reader (excitation at 380 nm emission at 460 nm).
as §1

cathepsin L, sequence (P07154 114-334): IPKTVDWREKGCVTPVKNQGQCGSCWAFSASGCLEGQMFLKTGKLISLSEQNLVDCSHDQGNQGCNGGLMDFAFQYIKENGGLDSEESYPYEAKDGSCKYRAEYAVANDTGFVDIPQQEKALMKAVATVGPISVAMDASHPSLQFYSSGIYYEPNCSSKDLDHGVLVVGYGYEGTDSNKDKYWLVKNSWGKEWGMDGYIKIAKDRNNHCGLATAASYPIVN
cathepsin B, sequence (P00787 80-333 limits assumed): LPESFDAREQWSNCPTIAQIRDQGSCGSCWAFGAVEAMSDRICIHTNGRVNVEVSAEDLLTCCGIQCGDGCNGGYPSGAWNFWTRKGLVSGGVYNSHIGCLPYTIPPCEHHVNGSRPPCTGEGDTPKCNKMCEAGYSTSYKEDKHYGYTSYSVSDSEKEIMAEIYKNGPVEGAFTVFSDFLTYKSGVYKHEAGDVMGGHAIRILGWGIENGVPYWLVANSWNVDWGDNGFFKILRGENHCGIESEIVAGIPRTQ

`CC(=O)O[C@@H]1NC(=O)[C@H]1NC(=O)C(NC(=O)OCc1ccccc1)c1ccccc1` (mixture of isomers) [Example 3, (3S,4S)-3-(N-benzyloxycarbonyl-DL-phenylglycyl)-amino-4-acetoxy-azetidin-2-one] was tested, and the IC50 (cathepsin L) was 43.1 µM and the IC50 (cathepsin B) was over 50 µM.
With `CC(=O)O[C@@H]1NC(=O)[C@H]1NC(=O)C(Cc1cccs1)NC(=O)OCc1ccccc1` (mixture of isomers) [Example 7, (3S,4S)-3-(N-benzyloxycarbonyl-β-(2-thienyl)-DL-alanyl)-amino-4-acetoxy-azetidin-2-one] the IC50 (cathepsin L) was 2.32 µM and the IC50 (cathepsin B) was 28.6 µM.
For `CC(=O)O[C@@H]1NC(=O)[C@H]1NC(=O)C1Cc2ccccc2N1C(=O)OCc1ccccc1` (stereo partly drawn) [Example 1, (3S,4S)-3-(1 -N-benzyloxycarbonyl-2-indolinecarbonyl)-amino-4-acetoxy-azetidin-2-one], the IC50 (cathepsin L) was 26.7 µM and the IC50 (cathepsin B) was over 50 µM.
`CC(=O)O[C@@H]1NC(=O)[C@H]1NC(=O)[C@H](NC(=O)OCc1ccccc1)c1ccccc1` [Example 2, (3S,4S)-3-(N-benzyloxycarbonyl-D-phenylglycyl)-amino-4-acetoxy-azetidin-2-one] gave an IC50 (cathepsin L) of over 50 µM and an IC50 (cathepsin B) of over 50 µM.
`CC(=O)O[C@@H]1NC(=O)[C@H]1NC(=O)[C@H](CCc1ccccc1)NC(=O)OCc1ccccc1` [Example 4, (3S,4S)-3-(N-benzyloxycarbonyl-L-homophenylalanyl)-amino-4-acetoxy-azetidin-2-one] was tested, and the IC50 (cathepsin L) was 11.4 µM and the IC50 (cathepsin B) was over 50 µM.
Molecule `CC(=O)O[C@@H]1NC(=O)[C@H]1NC(=O)[C@H](Cc1cccnc1)NC(=O)OCc1ccccc1` [Example 5, (3S,4S)-3-{N-benzyloxycarbonyl-β-(3-pyridyl)-L-alanyl}-amino-4-acetoxy-azetidin-2-one] has an IC50 (cathepsin L) of 8.26 µM and an IC50 (cathepsin B) of over 50 µM.
`CC(=O)O[C@@H]1NC(=O)[C@H]1NC(=O)[C@H](Cc1ccccn1)NC(=O)OCc1ccccc1` [Example 6, (3S,4S)-3-(N-benzyloxycarbonyl-β-(2-pyridyl)-L-alanyl)-amino-4-acetoxy-azetidin-2-one] was tested, and the IC50 (cathepsin L) was 12.1 µM and the IC50 (cathepsin B) was over 50 µM.
Molecule `CC(=O)O[C@@H]1NC(=O)[C@H]1NC(=O)[C@H](Cc1ccc2ccccc2c1)NC(=O)OCc1ccccc1` [Example 8, (3S,4S)-3-(N-benzyloxycarbonyl-β-(2-naphthyl)-L-alanyl)-amino-4-acetoxy-azetidin-2-one] has an IC50 (cathepsin L) of 0.0135 µM and an IC50 (cathepsin B) of 16.4 µM.
For `CC(=O)O[C@@H]1NC(=O)[C@H]1NC(=O)[C@H](Cc1cccc(F)c1)NC(=O)OCc1ccccc1` [Example 9, (3S,4S)-3-{N-benzyloxycarbonyl-β-(3-fluorophenyl)-L-alanyl}-amino-4-acetoxy-azetidin-2-one], the IC50 (cathepsin L) was 0.341 µM and the IC50 (cathepsin B) was 18.8 µM.
In the case of `COc1ccc(C[C@H](NC(=O)OCc2ccccc2)C(=O)N[C@@H]2C(=O)N[C@H]2OC(C)=O)cc1` [Example 10, (3S,4S)-3-{N-benzyloxycarbonyl-β-(4-methoxyphenyl)-L-alanyl}-amino-4-acetoxy-azetidin-2-one], the IC50 (cathepsin L) is reported as 0.057 µM and the IC50 (cathepsin B) is reported as 7.51 µM.
Molecule `O=C(N[C@@H](Cc1ccc2ccccc2c1)C(=O)N[C@@H]1C(=O)N[C@H]1Oc1ccccc1)OCc1ccccc1` [Example 11, (3S,4S)-3-{N-benzyloxycarbonyl-β-(2-naphthyl)-L-alanyl}-amino-4-phenoxy-azetidin-2-one] has an IC50 (cathepsin L) of 0.015 µM and an IC50 (cathepsin B) of 0.9 µM.
`Cc1cccc(O[C@@H]2NC(=O)[C@H]2NC(=O)[C@H](Cc2ccc3ccccc3c2)NC(=O)OCc2ccccc2)c1` [Example 12A, (3S,4S)-3{N-benzyloxycarbonyl-β-(2-naphthyl)-L-alanyl}-amino-4-(3-methylphenoxy)-azetidin-2-one] was tested, and the IC50 (cathepsin L) was 0.003 µM and the IC50 (cathepsin B) was 0.38 µM.
`Cc1cccc(O[C@H]2NC(=O)[C@H]2NC(=O)[C@H](Cc2ccc3ccccc3c2)NC(=O)OCc2ccccc2)c1` [Example 12B, (3S,4R)-3-{N-benzyloxycarbonyl-β-(2-naphthyl)-L-alanyl}-amino-4-(3-methylphenoxy)-azetidin-2-one] gave an IC50 (cathepsin L) of 0.0004 µM and an IC50 (cathepsin B) of 0.08 µM.
Work on `O=C(N[C@@H](Cc1ccc2ccccc2c1)C(=O)N[C@@H]1C(=O)N[C@H]1Oc1ccc2ccccc2c1)OCc1ccccc1` [Example 13A, (3S,4S)-3-{N-benzyloxycarbonyl-β-(2-naphthyl)-L-alanyl}amino-4-(2-naphthoxy)-azetidin-2-one] yielded an IC50 (cathepsin L) of 0.0029 µM and an IC50 (cathepsin B) of 1.8 µM.
For `O=C(N[C@@H](Cc1ccc2ccccc2c1)C(=O)N[C@@H]1C(=O)N[C@@H]1Oc1ccc2ccccc2c1)OCc1ccccc1` [Example 13B, (3S,4R)-3-{N-benzyloxycarbonyl-β-(2-naphthyl)-L-alanyl}-amino-4-(2-naphthoxy)-azetidin-2-one], the IC50 (cathepsin L) was 0.00011 µM and the IC50 (cathepsin B) was 0.0715 µM.
In the case of `O=C(N[C@@H](Cc1ccc2ccccc2c1)C(=O)N[C@@H]1C(=O)N[C@H]1Oc1cccc(N2CCOCC2)c1)OCc1ccccc1` [Example 14A, (3S,4S)-3-{N-benzyloxycarbonyl-β-(2-naphthyl)-L-alanyl}amino-4-{3-(morpholin-4-yl)-phenoxy}-azetidin-2-one], the IC50 (cathepsin L) is reported as 0.0027 µM and the IC50 (cathepsin B) is reported as 1.7 µM.
With `O=C(N[C@@H](Cc1ccc2ccccc2c1)C(=O)N[C@@H]1C(=O)N[C@@H]1Oc1cccc(N2CCOCC2)c1)OCc1ccccc1` [Example 14B, (3S,4R)-3-{N-benzyloxycarbonyl-β-(2-naphthyl)-L-alanyl}-amino-4-{3-(morpholin-4-yl)-phenoxy}-azetidin-2-one] the IC50 (cathepsin L) was 0.0005 µM and the IC50 (cathepsin B) was 0.34 µM.
With `O=C(CCc1ccccc1)NC(Cc1ccc2ccccc2c1)C(=O)NC1C(=O)NC1Sc1ccccc1` [Example 15, (3S,4SR)-3-{N-(3-phenylpropionoyl)-β-(2-naphthyl)-L-alanyl}-amino-4-phenylthio-azetidin-2-one] the IC50 (cathepsin L) was 0.0061 µM and the IC50 (cathepsin B) was 1.91 µM.
`O=C(CCc1ccccc1)NC(Cc1ccc2ccccc2c1)C(=O)NC1C(=O)NC1S(=O)(=O)c1ccccc1` [Example 16, (3S,4SR)-3-{N-(3-phenylpropionoyl)-β-(2-naphthyl)-L-alanyl}-amino-4-phenylsulfonyl-azetidin-2-one] gave an IC50 (cathepsin L) of 0.0086 µM and an IC50 (cathepsin B) of 1.6 µM.
With `O=C(CCc1ccccc1)NC(Cc1ccc2ccccc2c1)C(=O)NC1C(=O)NC1SCCO` [Example 17, (3S,4SR)-3-{N-(3-phenylpropionoyl)-β-(2-naphthyl)-L-alanyl}-amino-4-(2-hydroxyethylthio)-azetidin-2-one] the IC50 (cathepsin L) was 0.4 µM and the IC50 (cathepsin B) was 10.1 µM.
With `O=C(CCc1ccccc1)N[C@@H](Cc1ccc2ccccc2c1)C(=O)N[C@@H]1C(=O)NC1OCc1ccccc1` (stereo partly drawn) [Example 18, (3S,4SR)-3{N-(3-phenylpropionoyl)-β-(2-naphthyl)-L-alanyl}-amino-4-benzyloxy-azetidin-2-one] the IC50 (cathepsin L) was 0.0767 µM and the IC50 (cathepsin B) was 1.92 µM.
Molecule `O=C(CCc1ccccc1)N[C@@H](Cc1ccc2ccccc2c1)C(=O)N[C@@H]1C(=O)NC1OC1CCCCC1` (stereo partly drawn) [Example 19, (3S,4SR)-3{N-(3-phenylpropionoyl)-β-(2-naphthyl)-L-alanyl}-amino-4-cyclohexyloxy-azetidin-2-one] has an IC50 (cathepsin L) of 0.39 µM and an IC50 (cathepsin B) of 1.95 µM.
`CC(=O)O[C@@H]1NC(=O)[C@H]1NC(=O)[C@H](Cc1ccc2ccccc2c1)NS(=O)(=O)/C=C/c1ccccc1` [Example 20, (3S,4S)-3-{N-(trans-2-phenyl-eth-1-enesulfonyl)-β-(2-naphthyl)-L-alanyl}-amino-4-acetoxy-azetidin-2-one] was tested, and the IC50 (cathepsin L) was 0.079 µM and the IC50 (cathepsin B) was 0.395 µM.
